Laboratory results from US20230338541A1, “USE OF HIGH MOLECULAR WEIGHT HYALURONIC ACID AS OCULAR TRANSPORTING VEHICLE” (I.COM MEDICAL GMBH, priority 2020, published 2023).

Experiment: Pre-test: latanoprost dissolved in the 0.15% hylan A vehicle, HPLC
Assay type: physicochemical
Details: 0.15% w/v hylan A vehicle, stirred 18 hours at 40° C., 25 or 50 μg/ml added
Method: Sterile bulk solution for the production of COMFORT SHIELD® MDS eye drops (i.com medical GmbH, Munich, Germany) was used as vehicle for the preparation of prototype latanoprost bulk solution (PLBS). The vehicle contained 0.15% w/v hylan A (HA with 2.9 m^3/kg intrinsic viscosity) dissolved in phosphate buffered saline solution (8.035 g/l NaCl; 1.2 mmol/1 Na2HPO4/NaH2PO4; pH 7.4). Latanoprost was obtained from Yonsung Fine Chemicals Co. Ltd., Gyeonggi-do, Republic of Korea. PLBS was prepared by medi-pharm Laboratorium GmbH, Falkensee, Germany by dissolving 20±1 μg/ml latanoprost in the vehicle.
In a pre-test 25 μg/ml and 50 μg/ml latanoprost were added to the vehicle and the solution stirred for 18 hours at 40° C. The latanoprost content was determined by HPLC using a Hypersil BDS C18 5 μg, 150.0×4.0 mm column (VDS optilab) and a UV detector (200 nm).

latanoprost found to be dissolved in the vehicle: 20.8 µg/mL
SMILES: CC(C)OC(=O)CCC/C=C\C[C@@H]1[C@@H](CC[C@@H](O)CCc2ccccc2)[C@H](O)C[C@@H]1O [latanoprost, Latanoprost]
